Data set [1] addresses T1, Alpha glucosidase (Homo sapiens, UniProt O43451+P10253+P14410+Q2M2H8). Briefly: Inhibition of alpha-glucosidase (unknown origin) assessed as inhibition rate at 100 uM relative to control. The data set is classed as protein assay.
For data set [2], the target named is T1, Alpha glucosidase. Briefly: Inhibition of alpha-glucosidase (unknown origin). The data set is classed as protein assay.
A short description of data set [3]: Stability in mouse plasma assessed as compound remaining parent compound after 1 hrs. The data set is classed as ADME, cell-free. The following applies: read-out: Stability.
Data set [4] can be described thus: Aqueous solubility of compound. It counts as physicochemical.
Data set [5] in a line: Cytotoxicity against human LO2 cells by MTT assay. The data set is classed as toxicity, cell-based, L02. On the technique in general: Tetrazolium dyes change colour on reduction, which living cells bring about.
The nature of data set [6]: Stability in mouse plasma assessed as compound remaining parent compound after 0.5 hrs. It counts as ADME, cell-free. The following applies: read-out: Stability.
Data set [7] in a line: Inhibition of alpha-amylase (unknown origin). On the set-up: species or system Homo sapiens.
Data set [8] can be described thus: Stability in mouse plasma assessed as compound remaining parent compound after 6 hrs. The data set is classed as ADME, cell-free. The note with it: read-out: Stability.
Data set [9] in a line: Selectivity index, ratio of IC50 for alpha-amylase (unknown origin) to IC50 for alpha-glucosidase (unknown origin).
Data set [10] has as its target T1, Alpha glucosidase. The data set is described as follows: Binding affinity to alpha-glucosidase (unknown origin) assessed as inhibition constant. It counts as protein assay.
Data set [11] deals with T1, Alpha glucosidase. The data set is described as follows: Binding affinity to alpha-glucosidase (unknown origin) assessed as decreased in Vmax using p-nitrophenyl glucopyranoside as substrate at 1 to 16 uM by Lineweaver-Burk plot analysis. The data set is classed as protein assay. The following applies: dose 1-16 µM.

Values after ≈ are worked out from the molar mass of the structure shown. A value given as a limit tells only on which side of the number the result lay.

The inhibition is the percentage by which the read-out fell short of the control. As usually defined, the IC50 is the concentration at which inhibition is half-maximal. Consider `COc1cc(C=O)ccc1OCC(=O)Nc1sc2c(c1C#N)CCCC2`, for which, on Alpha glucosidase [1], the inhibition came to 70.4%. The compound further registered an IC50 against Alpha glucosidase [2] of 14.09 µM.
As a reminder, the solubility is the dissolved amount per volume that the medium holds. Low values mean a poorly soluble substance, high ones a readily soluble substance. The CC50 is the concentration at which the toxic effect on the cells reaches its halfway point. A low value points to greater toxicity to the cells. Regarding `COc1ccc(C=O)cc1OCC(=O)Nc1sc2c(c1C#N)CCC(C)C2` (centres undefined), the remaining at 1 h in data set [3] is 35%. Further, the solubility in [4] is 25 µM (≈ 9.61 µg/mL). Also, the 50% cytotoxic concentration (CC50) in [5] was > 200 µM. Further, the remaining at 0.5 h in data set [6] was 76.5%. Also, the IC50 stood at 38.5 µM in data set [7] and 4.69 µM against Alpha glucosidase [2]. In addition, in [8], the remaining at 6 h came to 0%. Moreover, the Selectivity Index in [9] was 8.19.
For the compound `COc1ccc(CNC(=O)Nc2sc3c(c2C#N)CCCC3)c(OC)c1`, the remaining at 1 h in [3] was 51.4%. The compound further registered a solubility in data set [4] of 28.6 µM (≈ 10.6 µg/mL). Moreover, the remaining at 0.5 h in data set [6] is 78%. In addition, on Alpha glucosidase [1], the inhibition is 73.9%. Besides, the remaining at 6 h in data set [8] worked out at 28.5%. Moreover, the IC50 on Alpha glucosidase [2] amounted to 15.32 µM.
As to `COc1cc(C=O)ccc1OCC(=O)Nc1sc2c(c1C#N)CCC(C)C2` (centres undefined), the remaining at 1 h in [3] is 72.9%. Moreover, the solubility in data set [4] turned out to be 28.6 µM (≈ 11 µg/mL). Besides, the CC50 in data set [5] is > 200 µM. The remaining at 0.5 h in data set [6] came out at 83.3%. Further, the half-inhibitory concentration (IC50) was 51.7 µM in [7] and 7.42 µM at Alpha glucosidase [2]. For the same compound, the inhibition at Alpha glucosidase [1] was determined as 93.4%. The remaining at 6 h in data set [8] came out at 33.6%. In data set [9], the Selectivity Index was 6.97.
With `COc1cc(C=O)ccc1OCC(=O)Nc1sc2c(c1C#N)CCOC2`, the inhibition on Alpha glucosidase [1] was determined as 67.3%. The same compound came in with an IC50 at Alpha glucosidase [2] of 32.38 µM.
For the compound `Cc1cccc(C=O)c1OCC(=O)Nc1sc2c(c1C#N)CCC(C)C2` (centres undefined), the 50% inhibitory concentration (IC50) at Alpha glucosidase [2] was > 50 µM.
For `COc1cc(C=O)ccc1OCC(=O)Nc1sc2c(c1C#N)CCC2`, the inhibition at Alpha glucosidase [1] is 70.4%. Besides, on Alpha glucosidase [2], the IC50 was determined as 35.6 µM.
For `Cc1cc(C=O)ccc1OCC(=O)Nc1sc2c(c1C#N)CCC(C)C2` (centres undefined), the IC50 on Alpha glucosidase [2] came to 35.55 µM.
On the same count and under the same terms, under `CC1CCc2c(sc(NC(=O)COc3cccc(C=O)c3)c2C#N)C1` (centres undefined) stands 20.85 µM; under `Cc1ccc(C=O)c(OCC(=O)Nc2sc3c(c2C#N)CCC(C)C3)c1` (centres undefined), > 50 µM.
`COc1ccc(C=O)c(OCC(=O)Nc2sc3c(c2C#N)CCC(C)C3)c1` (centres undefined): the remaining at 1 h in data set [3] stood at 42.7%. In [4], this compound registered a solubility of 22.2 µM (≈ 8.53 µg/mL). Moreover, in data set [5], the CC50 is > 200 µM. In addition, in [6], the remaining at 0.5 h was 57%. The IC50 came to 65.7 µM in data set [7] and 7.17 µM against Alpha glucosidase [2]. The remaining at 6 h in [8] was 30%. Further, the Selectivity Index in data set [9] is 9.2.
For `COc1cc(C=O)ccc1OCC(=O)Nc1sc2c(c1C#N)CCC(O)C2` (centres undefined), the inhibition at Alpha glucosidase [1] amounted to 86.5%. Besides, the IC50 on Alpha glucosidase [2] amounted to 10.35 µM.
Take `COC(=O)C1CCCc2sc(NC(=O)COc3ccc(C=O)cc3OC)c(C#N)c21` (centres undefined): the inhibition on Alpha glucosidase [1] stood at 69.8%. This compound also had an IC50 against Alpha glucosidase [2] of 60.25 µM.
On Alpha glucosidase [2], `CC1CCc2c(sc(NC(=O)COc3ccc(C=O)cc3)c2C#N)C1` (centres undefined) showed an IC50 of 24.28 µM.
With `CCOC(=O)C1CCc2sc(NC(=O)COc3ccc(C=O)cc3OC)c(C#N)c21` (centres undefined), the inhibition on Alpha glucosidase [1] was determined as 61.5%. The compound further came in with an IC50 against Alpha glucosidase [2] of 69.78 µM.
Take `COc1cc(C=O)ccc1OCC(=O)Nc1sc2c(c1C#N)CCCC2=O`: the inhibition at Alpha glucosidase [1] was found to be 45.6%.
Consider `C[C@H]1O[C@H](O[C@H]2[C@H](O)[C@@H](O)[C@@H](O[C@H]3[C@H](O)[C@@H](O)C(O)O[C@@H]3CO)O[C@@H]2CO)[C@H](O)[C@@H](O)[C@@H]1N[C@H]1C=C(CO)[C@@H](O)[C@H](O)[C@H]1O` (some centres undefined) [ACARBOSE], for which the CC50 in data set [5] is > 200 µM. This compound came in with a concentration for half-maximal inhibition (IC50) in data set [7] of 70 µM.
For `COc1cc(C=O)ccc1OCC(=O)Nc1sc2c(c1C#N)CCCCC2`, the inhibition at Alpha glucosidase [1] was determined as 7.31%.
One may read the Ki as a measure of affinity in units of concentration, obtained from inhibition or displacement. On to `COc1cc(C=O)cc(OCC(=O)Nc2sc3c(c2C#N)CCC(C)C3)c1OC` (racemic), for which the Ki on Alpha glucosidase [10] came to 5.56 µM. In [3], the remaining at 1 h worked out at 61.3%. This compound yielded a solubility in data set [4] of 25 µM (≈ 10.4 µg/mL). In addition, the CC50 in data set [5] was > 200 µM. Also, in [6], the remaining at 0.5 h amounted to 84.3%. In addition, the Activity result at Alpha glucosidase [11] was “Dose-dependent-effect”. Also, the figures for the concentration for half-maximal inhibition (IC50) (in data set [7]; at Alpha glucosidase [2]) were 36.9 µM and 2.11 µM, respectively. Also, in data set [8], the remaining at 6 h worked out at 50.6%. For the same compound, in [9], the Selectivity Index came out at 17.5.
On to `CC1CCc2c(sc(NC(=O)COc3ccccc3C=O)c2C#N)C1` (centres undefined), for which, at Alpha glucosidase [2], the IC50 was > 50 µM.
Take `COc1cc(C=O)ccc1OCC(=O)Nc1sc2c(c1C#N)CCC1(C2)OCCO1`: the inhibition on Alpha glucosidase [1] worked out at 15.7%.
